Values quoted from earlier work as cited in patent publication US7834015B2, “Pyrrolo[1,2-a] pyrazin-1(2H)-one and pyrrolo[1,2-d][1,2,4]triazin-1(2H)-one derivatives as inhibitors of poly(ADP-ribose)polymerase (PARP)” (Instituto di Ricerche Di Biologia Molecolare P. Angeletti …, priority 2006, dated 2010).

System: ischemia and reperfusion of the heart or skeletal muscle
Conditions: rabbits

Question: Which “reductions in infarct size in the heart” value (single injection 10 mg/kg, one minute before occlusion or one minute before reperfusion) does the source give for NC(=O)c1cccc(N)c1 [3-amino-benzamide] here?
Answer: 32-42%

Question: Which reduced infarct size (single injection 1 mg/kg) does the source give for Oc1cccc2c(O)nccc12 [1,5-dihydroxyisoquinoline] here?
Answer: 38-48%
